Test results published in ChEMBL document CHEMBL4340533, “Discovery of an EGFR tyrosine kinase inhibitor from Ilex latifolia in breast cancer therapy” (Bioorg Med Chem Lett, 2019).
Activity calls are given as the source filed them. The rule behind the calls is not given here.

Legend:
MDA-MB-231 [1] = assay: Induction of apoptosis in human MDA-MB-231 cells assessed as increase in cleaved caspase 3 expression at 20 to 80 ug/ml by Western blot analysis; assay type: functional, cell-based
MDA-MB-231 [2] = assay: Antiproliferative activity against human MDA-MB-231 cells assessed as reduction in cell viability after 24 hrs by MTT assay; assay type: functional, cell-based
MDA-MB-231 [3] = assay: Induction of apoptosis in human MDA-MB-231 cells assessed as early apoptotic cells at 80 ug/ml after 24 hrs by Annexin-V-FITC/propidium iodide staining based FACS analysis relative to control; assay type: functional
MDA-MB-231 [4] = assay: Induction of apoptosis in human MDA-MB-231 cells assessed as increase in late apoptotic cells at 20 to 40 ug/ml after 24 hrs by Annexin-V-FITC/propidium iodide staining based FACS analysis; assay type: functional, cell-based
MDA-MB-231 [5] = assay: Induction of apoptosis in human MDA-MB-231 cells assessed as down regulation of PARP1 expression by Western blot analysis; assay type: functional, cell-based
[6] = molecular target: Epidermal growth factor receptor (Homo sapiens) (UniProt P00533); assay: Inhibition of EGFR phosphorylation in human MDA-MB-231 cells by Western blot analysis; assay type: cell-based
[7] = tested on: Epidermal growth factor receptor (Homo sapiens), P00533 [L858R]; assay: Inhibition of EGFR L858R mutant (unknown origin) using polyE4Y1 as substrate measured after 60 mins
MDA-MB-231 [8] = assay: Induction of apoptosis in human MDA-MB-231 cells assessed as increase in apoptotic cells after 24 hrs in presence of lapatinib by Annexin-V-FITC/propidium iodide staining based FACS analysis; assay type: functional, cell-based
MDA-MB-231 [9] = assay: Induction of apoptosis in human MDA-MB-231 cells assessed as increase in apoptotic cells after 24 hrs in presence of EGFR siRNA by Annexin-V-FITC/propidium iodide staining based FACS analysis; assay type: functional, cell-based
MDA-MB-231 [10] = assay: Antitumor activity against human MDA-MB-231 cells xenografted in athymic BALB/c nude mouse assessed as decrease in tumor volume at 1.25 to 5 mg/kg, […] administered every two days for 28 days measured post-last dose by caliper method; assay type: functional, organism-based
Mus musculus [11] = assay: Down regulation of RAS expression in athymic BALB/c nude mouse xenografted with human MDA-MB-231 cells at 1.25 to 5 mg/kg, sc administered every two days for 28 days by Western blot analysis; assay type: functional, organism-based
Mus musculus [12] = assay: Down regulation of PI3K expression athymic BALB/c nude mouse xenografted with human MDA-MB-231 cells at 1.25 to 5 mg/kg, sc administered every two days for 28 days by Western blot analysis; assay type: functional, organism-based
Mus musculus [13] = assay: Down regulation of mTOR expression in athymic BALB/c nude mouse xenografted with human MDA-MB-231 cells at 1.25 to 5 mg/kg, sc administered every two days for 28 days by Western blot analysis; assay type: functional, organism-based
Mus musculus [14] = assay: Effect on RAF expression in athymic BALB/c nude mouse xenografted with human MDA-MB-231 cells at 1.25 to 5 mg/kg, sc administered every two days for 28 days by Western blot analysis; assay type: functional, organism-based
Mus musculus [15] = assay: Induction of ERK phosphorylation in athymic BALB/c nude mouse xenografted with human MDA-MB-231 cells at 1.25 to 5 mg/kg, sc administered every two days for 28 days by Western blot analysis; assay type: functional, organism-based
Mus musculus [16] = assay: Down regulation of AKT phosphorylation in athymic BALB/c nude mouse xenografted with human MDA-MB-231 cells at 1.25 to 5 mg/kg, sc administered every two days for 28 days by Western blot analysis; assay type: functional, organism-based
Mus musculus [17] = assay: Effect on MEK expression in athymic BALB/c nude mouse xenografted with human MDA-MB-231 cells at 1.25 to 5 mg/kg, sc administered every two days for 28 days by western blot analysis; assay type: functional, organism-based
Mus musculus [18] = assay: Effect on MEK phosphorylation in athymic BALB/c nude mouse xenografted with human MDA-MB-231 cells at 1.25 to 5 mg/kg, sc administered every two days for 28 days by western blot analysis; assay type: functional, organism-based
Mus musculus [19] = assay: Increase in ERK expression in athymic BALB/c nude mouse xenografted with human MDA-MB-231 cells at 1.25 to 5 mg/kg, sc administered every two days for 28 days by Western blot analysis; assay type: functional, organism-based

Chain of Epidermal growth factor receptor (Homo sapiens) (P00533 whole entry): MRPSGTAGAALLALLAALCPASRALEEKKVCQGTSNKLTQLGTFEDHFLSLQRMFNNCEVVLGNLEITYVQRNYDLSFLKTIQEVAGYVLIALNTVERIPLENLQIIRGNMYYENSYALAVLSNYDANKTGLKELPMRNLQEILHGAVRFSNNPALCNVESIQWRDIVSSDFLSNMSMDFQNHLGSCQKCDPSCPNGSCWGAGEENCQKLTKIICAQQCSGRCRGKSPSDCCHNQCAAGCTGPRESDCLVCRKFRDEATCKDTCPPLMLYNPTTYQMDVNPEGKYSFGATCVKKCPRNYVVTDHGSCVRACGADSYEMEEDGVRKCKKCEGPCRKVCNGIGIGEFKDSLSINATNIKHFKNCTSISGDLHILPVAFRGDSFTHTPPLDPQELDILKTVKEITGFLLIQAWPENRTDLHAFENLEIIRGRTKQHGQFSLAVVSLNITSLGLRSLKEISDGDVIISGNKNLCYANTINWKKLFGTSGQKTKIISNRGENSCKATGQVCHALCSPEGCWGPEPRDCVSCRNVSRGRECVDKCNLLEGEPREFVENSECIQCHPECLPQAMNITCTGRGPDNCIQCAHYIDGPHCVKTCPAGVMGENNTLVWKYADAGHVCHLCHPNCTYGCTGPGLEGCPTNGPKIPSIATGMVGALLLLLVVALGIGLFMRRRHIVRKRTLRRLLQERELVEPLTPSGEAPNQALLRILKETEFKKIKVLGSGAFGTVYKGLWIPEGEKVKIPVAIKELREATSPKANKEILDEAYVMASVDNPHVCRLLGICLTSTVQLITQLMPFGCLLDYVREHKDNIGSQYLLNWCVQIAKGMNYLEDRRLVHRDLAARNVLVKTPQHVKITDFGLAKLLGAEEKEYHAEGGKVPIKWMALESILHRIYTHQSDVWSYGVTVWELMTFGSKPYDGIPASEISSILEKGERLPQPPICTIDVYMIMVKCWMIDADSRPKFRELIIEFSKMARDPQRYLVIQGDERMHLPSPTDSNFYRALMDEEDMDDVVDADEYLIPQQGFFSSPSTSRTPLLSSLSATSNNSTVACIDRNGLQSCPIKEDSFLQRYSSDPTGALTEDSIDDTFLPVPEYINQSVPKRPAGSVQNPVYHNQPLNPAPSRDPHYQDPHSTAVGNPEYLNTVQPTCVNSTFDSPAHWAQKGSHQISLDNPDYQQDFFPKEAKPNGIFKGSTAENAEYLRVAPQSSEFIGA
Chain of Epidermal growth factor receptor (Homo sapiens), P00533 [L858R] (P00533 whole entry L858R): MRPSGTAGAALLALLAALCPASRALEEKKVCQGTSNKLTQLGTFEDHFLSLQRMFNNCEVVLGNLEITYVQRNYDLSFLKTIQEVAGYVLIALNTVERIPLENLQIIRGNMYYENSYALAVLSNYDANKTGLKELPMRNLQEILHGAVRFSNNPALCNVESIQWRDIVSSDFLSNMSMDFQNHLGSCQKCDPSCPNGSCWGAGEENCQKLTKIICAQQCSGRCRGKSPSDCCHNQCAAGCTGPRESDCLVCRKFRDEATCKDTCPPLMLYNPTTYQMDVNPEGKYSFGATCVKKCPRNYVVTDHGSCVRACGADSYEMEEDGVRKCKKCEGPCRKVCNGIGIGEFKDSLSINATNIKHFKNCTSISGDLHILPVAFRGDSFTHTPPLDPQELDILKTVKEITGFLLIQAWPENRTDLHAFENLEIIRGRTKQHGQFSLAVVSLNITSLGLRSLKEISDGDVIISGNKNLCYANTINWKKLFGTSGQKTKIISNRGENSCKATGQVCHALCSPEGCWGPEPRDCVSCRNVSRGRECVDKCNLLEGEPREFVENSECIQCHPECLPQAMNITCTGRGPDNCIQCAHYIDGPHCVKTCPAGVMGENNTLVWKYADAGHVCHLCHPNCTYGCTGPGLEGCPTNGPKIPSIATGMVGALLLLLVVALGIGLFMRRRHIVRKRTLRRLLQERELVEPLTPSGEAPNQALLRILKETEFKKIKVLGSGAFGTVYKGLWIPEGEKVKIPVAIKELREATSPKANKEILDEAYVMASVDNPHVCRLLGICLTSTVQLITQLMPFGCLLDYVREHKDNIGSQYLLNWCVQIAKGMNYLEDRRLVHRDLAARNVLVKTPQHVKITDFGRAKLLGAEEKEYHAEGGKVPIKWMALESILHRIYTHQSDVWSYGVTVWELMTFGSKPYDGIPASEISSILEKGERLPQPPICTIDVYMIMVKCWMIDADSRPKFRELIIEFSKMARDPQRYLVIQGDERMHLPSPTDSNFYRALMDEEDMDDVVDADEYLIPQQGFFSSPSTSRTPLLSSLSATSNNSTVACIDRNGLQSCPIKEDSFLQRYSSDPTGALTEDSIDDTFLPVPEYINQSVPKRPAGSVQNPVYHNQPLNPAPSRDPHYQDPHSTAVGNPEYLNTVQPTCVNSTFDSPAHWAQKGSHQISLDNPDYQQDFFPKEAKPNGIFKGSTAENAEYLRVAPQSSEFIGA

Compound: C[C@H]1[C@H](C)CC[C@]2(C(=O)O)CC[C@]3(COC(=O)/C=C/c4ccc(O)cc4)C(=CC[C@@H]4[C@@]5(C)CC[C@H](O)C(C)(C)[C@@H]5CC[C@]43C)[C@H]12
- Activity (MDA-MB-231 [1]): Active
- Activity (MDA-MB-231 [2]): Dose-dependent effect
- Activity (MDA-MB-231 [3]): 42.03%
- Activity (MDA-MB-231 [4]): Active
- Activity (MDA-MB-231 [5]): Dose-dependent effect
- inhibition [6]: Active
- inhibition [7]: Dose-dependent effect
- Activity (MDA-MB-231 [8]): inactive
- Activity (MDA-MB-231 [9]): inactive
- Activity (MDA-MB-231 [10]): Active
- Activity (Mus musculus [11]): Active
- Activity (Mus musculus [12]): Active
- Activity (Mus musculus [13]): Active
- Activity (Mus musculus [14]): inactive
- Activity (Mus musculus [15]): Active
- Activity (Mus musculus [16]): Active
- Activity (Mus musculus [17]): inactive
- Activity (Mus musculus [18]): inactive
- Activity (Mus musculus [19]): Active
